# Data reported in US10730863B2, “Bridged bicyclic compounds as farnesoid X receptor modulators” (BRISTOL-MYERS SQUIBB COMPANY, priority 2017, dated 2020).
# What was measured:
# [1] = biological target: T1, FXR (Homo sapiens (Human), UniProt Q96RI1); assay: FXR EC50 (FXR agonist activity reported with each example); assay type: cell-based
# [2] = system: Cypa7a1, Ffg15; assay: Mouse in vivo (Cyp7a1 / Fgf15 response); settings: 3 mg/kg, @ 6 h
# [3] = system: Cyp7a1; assay: Acute mouse PK/PD: Cyp7a1 gene expression in liver; assay type: in vivo; settings: for Cyp7a1 (fold change@ 6 h relative to Vehicle): mouse PD
# Experimental: (§1) In Vivo Testing Example: Acute Mouse PK/PD
# (§2) Male, C57BL6/NTac mice, weighing 25-28 g, are purchased from Taconic Labs (Hudson, N.Y.) and maintained on Teklad Global 18% Protein Rodent Diet (Harlan Laboratories). After 1 week acclimation, mice are sorted into groups based upon body weight. Mice are administered a single oral dose of vehicle or experimental compound. Systemic compound exposure is evaluated in plasma derived from blood collected via the submandibular vein at 1 hour post-dose, and at study termination (6 h). At study termination, the animals are euthanized and rapidly dissected. The medial lobe of the liver is divided, with one half being homogenized and analyzed for compound exposure, and the other half saved in RNAlater (Thermo-Fisher Scientific). The ileum is also dissected and preserved in RNAlater. Tissue samples in RNAlater are homogenized with MP Biomedicals' beads. RNA is extracted using the MagMax-96 Total RNA Isolation kit (Thermo-Fisher Scientific) according to the manufacturer's protocol. RNA Concentration is determined with the Nano-Drop 8000 Spectrophotometer (Thermo Fisher). Reverse transcription is done with Invitrogen's SuperScript® VILO cDNA Synthesis Kit according to the manufacturer's protocol. Real time PCR is done with Applied Biosystems' Taqman PCR master mixture according to the manufacturer's protocol. All primers are purchased from Thermo-Fisher Scientific. Mouse genes analyzed include Nr0b2 (which encodes the small heterodimer partner, SHP), Abcb11 (which encodes the bile salt excretion pump, BSEP), Cyp7a1, & Cyp8b1 in liver, and Fgf15, Fabp6 (which encodes ileal bile acid binding protein, I-BABP), Slc51a (which encodes organic solute transporter alpha subunit, OSTA), and Slc51b (which encodes organic solute transporter beta subunit, OSTB) in the ileum. The statistical significant changes in FGF15 gene expression are expressed as fold increase and CYP7A1 expression as a percent reduction relative to vehicle control.
# [4] = system: Fgf15; assay: Acute mouse PK/PD: Fgf15 gene expression in ileum; assay type: in vivo; settings: for Fgf15 (fold change@ 6 h relative to Vehicle): mouse PD
# Experimental: as §1, §2
# [5] = biological target: T1, FXR; assay: transient human FXR/Gal4-luciferase reporter assay; assay type: cell-based; settings: Gal4-hFXR LBD fusion in HEK293 reporter cells; relative to 8 μM GW-4064
# Experimental: The exemplified compounds of the present invention were tested in the transient human FXR/Gal4-luciferase reporter assay, and assay results were described in the EXAMPLES section hereinbefore.
# A Gal4-hFXR fusion construct reporter system was used as the primary assay to characterize compound activity. A construct including 5 copies of the Gal4 promoter response element upstream of a firefly luciferase reporter cDNA was stably expressed in HEK293 cells. This reporter cell line was maintained in Dulbecco's Modified Eagle's medium (DMEM; Gibco) supplemented with 1% penicillin-streptomycin (P/S) solution, 500 μg/ml Zeocin and 10% charcoal/dextran-treated fetal bovine serum (cs-FBS) at 37° C. in a humidified 5% CO2 atmosphere. Another plasmid was constructed in which the human cytomegalovirus promoter in the pcDNA3.1 vector directs the expression of the cDNA encoding a fusion protein comprised of the DNA binding domain from the Gal4 transcription factor fused to the ligand binding domain from human FXR.
# The day prior to transfection, the reporter cells in culture are detached from the plate with trypsin and plated into a T75 flask at a sufficient density to achieve approximately 90% confluence the next morning. The transfection reagents are prepared by separately diluting 25 μg of the pcDNA3.1-Gal4-FXR plasmid into 1.87 mL of Opti-MEM (Thermo-Fisher), and 40 μL of Lipofectamine 2000 (Thermo-Fisher) into 1.87 mL of Opti-MEM, and then adding the diluted DNA solution into the diluted Lipofectamine 2000 solution and incubating at room temperature for 15-20 minutes. The mixture is further diluted with 10 mL of a solution comprised of DMEM, 10% cs-FBS, and 1% P/S immediately prior to transferring to the cells. The maintenance culture media is aspirated from the cells and the final transfection mixture is added before the cells are incubated overnight at 37° C. in a humidified 5% CO2 atmosphere. This protocol can be scaled up, and the transiently transfected cells can be cryopreserved in an assay-ready format.
# For compound testing, 100 nL of the compounds (serial dilutions in DMSO) are dispensed with an Echo acoustic dispenser (Labcyte) into the wells of a Corning/Costar clear bottom 384-well white plate. The transfected cells are harvested, counted, and diluted such that 10-25,000 cells in 25 μL are plated into each well of the 384-well compound assay plate. The compound-treated cells are incubated overnight at 37° C. in a humidified 5% CO2 atmosphere. The next morning 25 μL of Steady-Glo (Promega) are added to each well of the plate, the mixture is incubated for 15 min. with shaking, and luminescence is measured on an Envision (Perkin Elmer) plate reader. Background counts from cells treated with DMSO alone are subtracted from all raw counts, and the corrected values are converted to a percentage of the control response attained with 8 μM GW-4064.
# [6] = 6-week trial, T2DM patients with NAFLD; cited from earlier work
# [7] = 72-week trial, patients with NASH, liver biopsies; cited from earlier work
# T1 sequence (Q96RI1 262-486): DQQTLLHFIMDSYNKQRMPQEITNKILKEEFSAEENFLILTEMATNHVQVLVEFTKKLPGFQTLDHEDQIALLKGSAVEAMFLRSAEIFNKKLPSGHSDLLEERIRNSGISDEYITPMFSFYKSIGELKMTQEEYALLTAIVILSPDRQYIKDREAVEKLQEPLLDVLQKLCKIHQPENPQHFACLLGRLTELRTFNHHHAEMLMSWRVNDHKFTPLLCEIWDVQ
smiles,measurement,setting,value
"CN1CCN(c2nc(C(=O)O)cc3ccc(C#CC45CCC(OCc6c(-c7c(Cl)cncc7Cl)noc6C6CC6)(CC4)CC5)cc23)CC1 [Example 519, 7-((4-((5-cyclopropyl-3-(3,5-dichloropyridin-4-yl)isoxazol-4-yl)methoxy)bicyclo[2.2.2]octan-1-yl)ethynyl)-1-(4-methylpiperazin-1-yl)isoquinoline-3-carboxylic acid]",EC50,[1],28 nM
same,Cypa7a1,[2],−92%
same,Ffg15,[2],+1.4 ×
O=C(O)c1cccc(-c2noc(C34CCC(OCc5c(-c6c(Cl)cccc6Cl)noc5C5CC5)(CC3)CC4)n2)c1 [Example 27],Cyp7a1 (fold change@ 6 h relative to Vehicle),[3]; dose 30 mg/kg,0.10 fold change
same,Fgf15 (fold change@ 6 h relative to Vehicle),[4]; dose 30 mg/kg,2.8 fold change
CN1CCN(c2nc(C(=O)O)cc3ccc(/C=C/C45CCC(OCc6c(-c7c(Cl)cncc7Cl)noc6C6CC6)(CC4)CC5)cc23)CC1 [Example 629],EC50,[5],35 nM
same,"Mouse in vivo Cyp7a1 (printed Cypa7a1), change relative to vehicle","[3]; mouse, 3 mg/kg single oral dose, @ 6 h, liver",−97%
same,"Mouse in vivo Fgf15 (printed Ffg15), fold increase relative to vehicle","[4]; mouse, 3 mg/kg single oral dose, @ 6 h, ileum",+7.1 x
"O=C(O)c1cc(C(F)(F)F)c2cc(OCC34CCC(OCc5c(-c6c(Cl)cncc6Cl)noc5C5CC5)(CC3)CC4)ccc2n1 [Example 101, 6-((4-((5-cyclopropyl-3-(3,5-dichloropyridin-4-yl)isoxazol-4-yl)methoxy)bicyclo[2.2.2]octan-1-yl)methoxy)-4-(trifluoromethyl)quinoline-2-carboxylic acid]",EC50,[1],8 nM
same,Cyp7a1 (fold change@ 6 h relative to Vehicle),[3]; dose 3 mg/kg,0.06 fold change
same,Fgf15 (fold change@ 6 h relative to Vehicle),[4]; dose 3 mg/kg,21 fold change
"CC[C@H]1[C@@H](O)[C@@H]2[C@H](CC[C@]3(C)[C@@H]([C@H](C)CCC(=O)O)CC[C@@H]23)[C@@]2(C)CC[C@@H](O)C[C@@H]12 [OCA, obeticholic acid]",body weight,[6],reduced
same,insulin sensitivity,[6],statistically significantly improved
same,"hepatic steatosis, lobular inflammation, hepatocyte ballooning, and fibrosis",[7],statistically significantly improved
